One test deals with PD-L1 receptor (Mus musculus, UniProt Q9EP73). Kind of test: Membrane receptor expression analysis using flow cytometry. In kind it is cell-based, murine. As to conditions: 4T1, 500 nM, APC-conjugated PD-L1 antibody. On the technique in general: A flow cytometer gives signals particle by particle.
Another test has as its system CD47/SIRPα axis. The test is described as follows: In vitro phagocytosis assay, BMDMs cocultured with CT26.CL25. In kind it is cell-based, BALB/c mice. As to conditions: 30 min treatment of CT26.CL25, 200 nM; comparison of the two treated groups.

This is an account of results in paper PMC10552107 (ACS Omega, 2023).

PD-L1 receptor, sequence (Q9EP73 19-290): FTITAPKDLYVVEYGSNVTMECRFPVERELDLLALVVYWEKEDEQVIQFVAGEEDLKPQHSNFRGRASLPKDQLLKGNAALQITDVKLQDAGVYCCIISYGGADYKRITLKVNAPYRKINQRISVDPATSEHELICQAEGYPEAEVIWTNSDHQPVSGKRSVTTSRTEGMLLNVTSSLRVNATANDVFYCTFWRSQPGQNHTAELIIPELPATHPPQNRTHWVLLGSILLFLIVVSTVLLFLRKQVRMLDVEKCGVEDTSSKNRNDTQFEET

D-peptide NYSKPTDRQYHF [PD-L1-ligand]: the results for the “PD-L1 expression (percentage of positive cells)” value at PD-L1 receptor (1 h) and at PD-L1 receptor (48 h) were 3.29% and 7.82%, respectively.

As for “EEELQIIQPDKSVLVAAGETATLRCTITSLFPVGPIQWFRGAGPGRVLIYNQRQGPFPRVTTVSDTTKRNNMDFSIRIGNITPADAGTYYCIKFRKGSPDDVEFKSGAGTELSVRAKP [CD47-ligand]”, in the test with CD47/SIRPα axis, the “phagocytic index (%)” value is “similar”.
